Test results published in patent US10662164B2, “Non-beta lactam antibiotics” (University of Notre Dame du Lac, priority 2014, dated 2020).
Converted amounts (≈) assume the structure as drawn. “Also recorded” adds a separate entry of the source. Read-outs that look alike come from different tables or passages of the source.

Experiments:
E. faecium NCTC 7171 = assay: MIC determination; format: cell-based, Enterococcus faecium; settings: Enterococcus faecium
S. aureus ATCC 29213 = assay: MIC determination; format: cell-based, Staphylococcus aureus; settings: for antibacterial activity in words (SAR, ring A derivatives): S. aureus ATCC 29213, compounds of Schemes 3-4
[1] = NCTC7171, Table 3.1, compounds of Schemes 2-4, read-out: E. faecium NCTC 7171 MIC
[2] = Staphylococcus aureus, ATCC29213, Table 3.1 and SAR text, compounds of Schemes 2-4, read-out: S. aureus ATCC 29213 MIC
[3] = NCTC7171, read-out: E. faecium NCTC 7171 MIC
[4] = Staphylococcus aureus, ATCC29213, read-out: S. aureus ATCC 29213 MIC
[5] = S. aureus ATCC29213, second numbering, compounds of Scheme 6

SMILES | MIC (E. faecium NCTC 7171; [1]) | MIC (S. aureus ATCC 29213; [2]) | antibacterial activity in words (SAR, ring A derivatives) (S. aureus ATCC 29213) | also measured
FC(F)(F)c1ccc(Oc2ccc(-c3noc(-c4n[nH]cc4Br)n3)cc2)cc1 [Compound 61b] | > 128 µg/mL | 1 µg/mL (≈ 2.22 µM) |  | 
O=[N+]([O-])c1c[nH]nc1-c1nc(-c2ccc(Oc3ccc(F)cc3)cc2)no1 [Compound 63c] | 4 µg/mL (≈ 10.9 µM) | 1 µg/mL (≈ 2.72 µM) |  | 
CCOP(=O)(OCC)c1ccc(-c2nc(-c3ccc(Oc4ccc(F)cc4)cc3)no2)cc1 [Compound 85c] |  |  |  | MIC (E. faecium NCTC 7171; [3]): > 128 µg/mL; MIC (S. aureus ATCC 29213; [4]): > 128 µg/mL
Oc1c(F)cc(-c2nc(-c3ccc(Oc4ccc(C(F)(F)F)cc4)cc3)no2)cc1F [Compound 73b] | 4 µg/mL (≈ 9.21 µM) | 4 µg/mL (≈ 9.21 µM) |  | 
Nc1c[nH]nc1-c1nc(-c2ccc(Oc3ccc(F)cc3)cc2)no1 [Compound 64c] | 32 µg/mL (≈ 94.9 µM) | 16 µg/mL (≈ 47.4 µM) |  | 
Fc1ccc(Oc2ccc(-c3noc(-c4ccc(Br)cc4)n3)cc2)cc1 [Compound 81c] | > 128 µg/mL | > 128 µg/mL |  | 
O=[N+]([O-])c1cc(-c2nc(-c3ccc(Oc4ccc(C(F)(F)F)cc4)cc3)no2)cnc1O [Compound 77b] | 4 µg/mL (≈ 9 µM) | 8 µg/mL (≈ 18 µM) |  | 
c1ccc(Oc2ccc(-c3noc(-c4ccc5[nH]ccc5c4)n3)cc2)cc1 [Compound 75a] | 2 µg/mL (≈ 5.66 µM) | 2 µg/mL (≈ 5.66 µM) |  | 
O=[N+]([O-])c1c[nH]c(-c2nc(-c3ccc(Oc4ccc(C(F)(F)F)cc4)cc3)no2)c1 [Compound 78b] | 64 µg/mL (≈ 154 µM) | 8 µg/mL (≈ 19.2 µM) | retained good activity | 
N#Cc1c[nH]nc1-c1nc(-c2ccc(Oc3ccc(C(F)(F)F)cc3)cc2)no1 [Compound 67b] | > 128 µg/mL | 2 µg/mL (≈ 5.03 µM) | good activity | 
Oc1ccc(-c2nc(-c3ccc(Oc4ccccc4)cc3)no2)cc1F [Compound 70a] | 4 µg/mL (≈ 11.5 µM) | 4 µg/mL (≈ 11.5 µM) |  | 
Oc1ccc(-c2nc(-c3ccc(Oc4ccc(F)cc4)cc3)no2)cc1 [Compound 57c] | 1 µg/mL (≈ 2.87 µM) | 1 µg/mL (≈ 2.87 µM) |  | 
Fc1ccc(Oc2ccc(-c3noc(-c4ccc5[nH]ccc5c4)n3)cc2)cc1 [Compound 75c] | 2 µg/mL (≈ 5.39 µM) | 2 µg/mL (≈ 5.39 µM) |  | 
C=CCOc1cc(N)ncc1-c1nc(-c2ccc(Oc3ccccc3)cc2)no1 [Compound 79a] | > 128 µg/mL | 8 µg/mL (≈ 20.7 µM) |  | 
Nc1ccc(-c2nc(-c3ccc(Oc4ccccc4)cc3)no2)cc1F [Compound 72a] |  |  |  | MIC (E. faecium NCTC 7171; [3]): > 32 µg/mL; antibacterial activity in words (SAR, C/D ring derivatives) (S. aureus ATCC 29213; [5]): inactive; MIC (S. aureus ATCC 29213; [4]): > 128 µg/mL
Oc1ccc(-c2nc(-c3ccc(Oc4ccc(C(F)(F)F)cc4)cc3)no2)cc1O [Compound 69b] | 128 µg/mL (≈ 309 µM) | 2 µg/mL (≈ 4.83 µM) |  | 
Nc1ccc(-c2nc(-c3ccc(Oc4ccc(F)cc4)cc3)no2)cc1 [Compound 58c] | > 128 µg/mL | > 128 µg/mL | no antibiotic activity; also recorded: inactive | 
Clc1c[nH]nc1-c1nc(-c2ccc(Oc3ccccc3)cc2)no1 [Compound 60a] |  |  |  | MIC (E. faecium NCTC 7171; [3]): > 128 µg/mL; MIC (S. aureus ATCC 29213; [5]): 8 µg/mL (≈ 23.6 µM); MIC (S. aureus ATCC 29213; [4]): 1 µg/mL (≈ 2.95 µM)

Further lines, with some results ahead:

MIC (E. faecium NCTC 7171; [1]) | MIC (S. aureus ATCC 29213; [2]) | SMILES | antibacterial activity in words (SAR, ring A derivatives) (S. aureus ATCC 29213) | also measured
> 128 µg/mL | > 128 µg/mL | O=[N+]([O-])c1cc(-c2nc(-c3ccc(Oc4ccc(F)cc4)cc3)no2)ccc1O [Compound 91c] | failed to show significant activity | 
> 128 µg/mL | > 128 µg/mL | NS(=O)(=O)c1ccc(-c2nc(-c3ccc(Oc4ccc(F)cc4)cc3)no2)cc1 [Compound 87c] |  | 
> 128 µg/mL | > 128 µg/mL | COC(=O)c1ccc(-c2nc(-c3ccc(Oc4ccc(F)cc4)cc3)no2)cc1 [Compound 90c] | failed to show significant activity | 
32 µg/mL (≈ 75.8 µM) | > 128 µg/mL | FC(F)(F)c1ccc(Oc2ccc(-c3noc(-c4c[nH]c5ncccc45)n3)cc2)cc1 [Compound 125b] |  | 
> 128 µg/mL | > 128 µg/mL | FC(F)(F)c1ccc(Oc2ccc(-c3noc(-c4n[nH]c5ccccc45)n3)cc2)cc1 [Compound 123b] |  | 
> 128 µg/mL | > 128 µg/mL | COc1ccc(-c2nc(-c3ccc(Oc4ccc(F)cc4)cc3)no2)cc1[N+](=O)[O-] [Compound 99c] |  | 
> 128 µg/mL | > 128 µg/mL | CC(C)(C)OC(=O)N1CCC(Nc2c[nH]nc2-c2nc(-c3ccc(Oc4ccc(C(F)(F)F)cc4)cc3)no2)CC1 [Compound 110b] |  | 
> 128 µg/mL | > 128 µg/mL | c1ccc(Oc2ccc(-c3noc(C4CCOCC4)n3)cc2)cc1 [Compound 131a] |  | 
64 µg/mL (≈ 181 µM) | > 128 µg/mL | c1ccc(Oc2ccc(-c3noc(-c4ccc5[nH]ncc5c4)n3)cc2)cc1 [Compound 124a] | No activity | 
32 µg/mL (≈ 80.1 µM) | > 128 µg/mL | Oc1ccc(-c2nc(-c3ccc(Oc4ccc(C(F)(F)F)cc4)cc3)no2)cn1 [Compound 120b] |  | 
64 µg/mL (≈ 171 µM) | > 128 µg/mL | NC(=O)c1ccc(-c2nc(-c3ccc(Oc4ccc(F)cc4)cc3)no2)cc1 [Compound 88c] | failed to show significant activity | 
> 128 µg/mL | > 128 µg/mL | Oc1cccc(-c2nc(-c3ccc(Oc4ccccc4)cc3)no2)c1 [Compound 95a] | failed to show significant activity | 
128 µg/mL (≈ 351 µM) | > 128 µg/mL | Nc1cc(-c2nc(-c3ccc(Oc4ccc(F)cc4)cc3)no2)cnc1O [Compound 121c] |  | 
64 µg/mL (≈ 190 µM) | 128 µg/mL (≈ 381 µM) | Nc1c[nH]c(-c2nc(-c3ccc(Oc4ccc(F)cc4)cc3)no2)c1 [Compound 126c] | No activity | 
32 µg/mL (≈ 70.1 µM) | > 128 µg/mL | Oc1cc(-c2nc(-c3ccc(Oc4ccccc4)cc3)no2)ccc1I [Compound 96a] | failed to show significant activity | 
128 µg/mL (≈ 289 µM) | > 128 µg/mL | CCC(C)Nc1c[nH]nc1-c1nc(-c2ccc(Oc3ccc(C(F)(F)F)cc3)cc2)no1 (stereo not drawn) [Compound 105b] | did not extend | 
> 128 µg/mL | > 128 µg/mL | Oc1ccccc1-c1nc(-c2ccc(Oc3ccccc3)cc2)no1 [Compound 97a] | failed to show significant activity | 
64 µg/mL (≈ 183 µM) | > 128 µg/mL | Oc1ccc(-c2nc(-c3ccc(Oc4ccc(F)cc4)cc3)no2)cn1 [Compound 120c] |  | 
128 µg/mL (≈ 352 µM) | > 128 µg/mL | Nc1cc(-c2nc(-c3ccc(Oc4ccc(F)cc4)cc3)no2)ccc1O [Compound 92c] | failed to show significant activity | 
> 128 µg/mL | > 128 µg/mL | COc1ccc(-c2nc(-c3ccc(Oc4ccccc4)cc3)no2)cc1N [Compound 100a] |  | 
> 128 µg/mL | > 128 µg/mL | COc1cc(-c2nc(-c3ccc(Oc4ccccc4)cc3)no2)ccc1N [Compound 94a] |  | 
